According to patent publication US20250034135A1, “ANTI-APOPTOTIC PROTEIN BCL-2 INHIBITOR, PHARMACEUTICAL COMPOSITION AND USES THEREOF” (HANGZHOU HEALZEN THERAPEUTICS CO., LTD., priority 2021, published 2025):
Read-outs that look alike come from different tables or passages of the source.

Key:
[1] = biological target: BCL2 (Homo sapiens (Human), UniProt P10415); assay: Molecular level activity test of anti-apoptotic protein BCL2 (HTRF, binding to Bim peptide); conditions: HTRF, binding of BCL2 to Bim peptide; read-out: BCL2 nM (inhibitory activity, IC50)
In short: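 HTRF binding of His-tagged recombinant BCL2 to biotin-tagged Bim peptide, compound in 2% DMSO. After 1 h reaction, anti-His and streptavidin-XL665 detection reagents were added and incubated 4 h at room temperature before reading.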

[2] = biological target: BCL2 (G101V) (Homo sapiens (Human), UniProt P10415, G101V); assay: Molecular level activity test of anti-apoptotic protein BCL2 (G101V) (HTRF, binding to Bim peptide); conditions: inhibition of BCL2 (G101V) binding to Bim peptide, read-out: BCL-2 (G101V)
Description: The detection of the binding ability between anti-apoptotic protein BCL2 (G101V) and pro-apoptotic protein Bim was performed using Homogeneous Time-Resolved Fluorescence technology. The reaction of this method occurred in a white shallow 384-well plate, with a total reaction volume of 10 μL. Specifically, it included 2 μL of the compound to be tested (2% DMSO), 4 μL His-tagged recombinant protein, and 4 μL Biotin-tagged BIM protein peptide. After 1 hour of reaction, […] of each Anti-His and streptavidin-tagged XL665 antibody diluents diluted with a detection buffer were added. After incubating at room temperature for 4 hours, the values were read using the Envision multifunctional microplate reader to detect the effect of the compound to be tested on the binding ability of BCL2 (G101V) to BIM protein peptides.

[3] = biological target: BCL-XL (Homo sapiens (Human), UniProt Q07817); assay: BCL-XL enzyme molecular level activity test (HTRF, binding to BIM peptide); conditions: binding of BCL-XL to BIM peptide, read-out: BCL-XL inhibitory activity (IC50)
BCL-XL, sequence (Q07817 whole entry): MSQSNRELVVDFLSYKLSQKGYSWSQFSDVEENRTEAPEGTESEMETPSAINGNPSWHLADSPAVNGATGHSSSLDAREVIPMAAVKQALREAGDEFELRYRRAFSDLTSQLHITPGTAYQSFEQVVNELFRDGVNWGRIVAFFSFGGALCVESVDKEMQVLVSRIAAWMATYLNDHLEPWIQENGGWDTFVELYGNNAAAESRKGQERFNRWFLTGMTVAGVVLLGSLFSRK
Description: In a white shallow 384-well plate, a total reaction volume was 10 μL. Specifically, it included 2 μL of the compound to be tested (2% DMSO), […] His-tagged recombinant protein, and 4 μL Biotin-tagged BIM protein peptide. After 1 hour of reaction, 5 μL of each Anti-His and streptavidin-tagged XL665 antibody diluents diluted with a detection buffer were added. After incubating at room temperature for 4 hours, the values were read using the Envision multifunctional microplate reader to detect the effect of the compound to be tested on the binding ability of BCL-XL to BIM protein peptides. The Envision parameter settings were exciting light at 320 nm, and emitting light at 615 nm and 665 nm. The binding ability of anti-apoptotic proteins to Bim protein peptides was indirectly reflected by the signal ratio of 665 nm and 615 nm. In the reaction, background wells without BCL2 and active wells for full binding of recombinant proteins without compounds and Bim protein peptides were set up.

SMILES | IC50 [1] | IC50 [2] | IC50 ([3]; values given in μM) | IC50 ([3]; values in nM)
CC(C)c1ccccc1[C@@H]1CN(Cc2ccc(F)cc2)CCN1C1CC2(CCN(c3cc(Oc4cnc5[nH]ccc5c4)c(C(=O)NS(=O)(=O)c4ccc(NCC5(F)CCOCC5)c([N+](=O)[O-])c4)cc3F)CC2)C1 [compound 186, (R)-2-((1H-pyrrolo[2,3-b]pyrid-5-yl)oxy)-5-fluoro-4-(2-(4-(4-fluorobenzyl)-2-(2-isopropylphenyl)piperazin-1-yl)-7-azaspiro[3.5]non-7-yl)-N-((4-(((4-fluorotetrahydro-2H-pyran-4-yl)methyl)amino)-3-nitrophenyl)sulfonyl)benzamide] | < 10 nM | < 10 nM | – | > 0.5 µM
COc1cc(CN2CCN(C3CC4(CCN(c5cc(Oc6cnc7[nH]ccc7c6)c(C(=O)NS(=O)(=O)c6ccc(NCC7(F)CCOCC7)c([N+](=O)[O-])c6)cc5F)CC4)C3)[C@H](c3ccccc3C(C)C)C2)ccc1C1CC1 [compound 196, (R)-2-((1H-pyrrolo[2,3-b]pyrid-5-yl)oxy)-4-(2-(4-(4-cyclopropyl-3-methoxybenzyl)-2-(2-isopropylphenyl)piperazin-1-yl)-7-azaspiro[3.5]non-7-yl)-5-fluoro-N-((4-(((4-fluorotetrahydro-2H-pyran-4-yl)methyl)amino)-3-nitrophenyl)sulfonyl)benzamide] | < 10 nM | < 10 nM | – | > 0.5 µM
CC(C)c1ccccc1[C@@H]1CN(Cc2ccc3c(c2)OCO3)CCN1C1CC2(CCN(c3cc(Oc4cnc5[nH]ccc5c4)c(C(=O)NS(=O)(=O)c4ccc(NCC5(F)CCOCC5)c([N+](=O)[O-])c4)cc3F)CC2)C1 [compound 203, (R)-2-((1H-pyrrolo[2,3-b]pyrid-5-yl)oxy)-4-(2-(4-(benzo[d][1,3]dioxocyclopent-5-ylmethyl)-2-(2-isopropylphenyl)piperazin-1-yl)-7-azaspiro[3.5]non-7-yl)-5-fluoro-N-((4-(((4-fluorotetrahydro-2H-pyran-4-yl)methyl)amino)-3-nitrophenyl)sulfonyl)benzamide] | < 10 nM | < 10 nM | – | > 0.5 µM
CC(C)c1ccccc1[C@@H]1CN(Cc2ccc3c(c2)OCCO3)CCN1C1CC2(CCN(c3cc(Oc4cnc5[nH]ccc5c4)c(C(=O)NS(=O)(=O)c4ccc(NCC5(F)CCOCC5)c([N+](=O)[O-])c4)cc3F)CC2)C1 [compound 207, (R)-2-((1H-pyrrolo[2,3-b]pyrid-5-yl)oxy)-4-(2-(4-((2,3-dihydrobenzo[b][1,4]dioxane-6-yl)methyl)-2-(2-isopropylphenyl)piperazin-1-yl)-7-azaspiro[3.5]non-7-yl)-5-fluoro-N-((4-(((4-fluorotetrahydro-2H-pyran-4-yl)methyl)amino)-3-nitrophenyl)sulfonyl)benzamide] | < 10 nM | – | – | > 0.5 µM
CC(C)c1ccccc1[C@@H]1CN(Cc2c(F)cccc2F)CCN1C1CC2(CCN(c3cc(Oc4cnc5[nH]ccc5c4)c(C(=O)NS(=O)(=O)c4ccc(NC[C@H]5CC[C@](C)(O)CC5)c([N+](=O)[O-])c4)cc3F)CC2)C1 [compound 217, 2-((1H-pyrrolo[2,3-b]pyrid-5-yl)oxy)-4-(2-((R)-4-(2,6-difluorobenzyl)-2-(2-isopropylphenyl)piperazin-1-yl)-7-azaspiro[3.5]non-7-yl)-5-fluoro-N-((4-((((1r, 4r)-4-hydroxy-4-methylcyclohexyl)methyl)amino)-3-nitrophenyl)sulfonyl)benzamide] | < 10 nM | – | – | > 0.5 µM
CC(C)c1ccccc1[C@@H]1CN(Cc2ccc3c(c2)OCCO3)CCN1C1CC2(CCN(c3cc(Oc4cnc5[nH]ccc5c4)c(C(=O)NS(=O)(=O)c4ccc(NC[C@H]5CC[C@](C)(O)CC5)c([N+](=O)[O-])c4)cc3F)CC2)C1 [compound 226, 2-((1H-pyrrolo[2,3-b]pyrid-5-yl)oxy)-4-(2-((R)-4-((2,3-dihydrobenzo[b][1,4]dioxane-6-yl)methyl)-2-(2-isopropylphenyl)piperazin-1-yl)-7-azaspiro[3.5]non-7-yl)-5-fluoro-N-((4-((((1r, 4r)-4-hydroxy-4-methylcyclohexyl)methyl)amino)-3-nitrophenyl)sulfonyl)benzamide] | < 10 nM | – | – | > 0.5 µM

Other lines, results leading:

IC50 [1] | IC50 [2] | IC50 ([3]; values given in μM) | IC50 ([3]; values in nM) | SMILES
< 10 nM | < 10 nM | > 1 µM | – | COc1ccc(CN2CCN(C3CC4(CCN(c5cc(Oc6cnc7[nH]cc(F)c7c6)c(C(=O)NS(=O)(=O)c6ccc(NCC7(F)CCN(C(C)C)CC7)c([N+](=O)[O-])c6)cc5F)CC4)C3)C(c3ccccc3C(C)C)C2)cc1 (stereo not drawn) [compound 062]
< 10 nM | < 10 nM | – | > 0.5 µM | COc1cccc(CN2CCN(C3CC4(CCN(c5cc(Oc6cnc7[nH]ccc7c6)c(C(=O)NS(=O)(=O)c6ccc(NCC7(F)CCOCC7)c([N+](=O)[O-])c6)cc5F)CC4)C3)[C@H](c3ccccc3C(C)C)C2)c1 [compound 184, (R)-2-((1H-pyrrolo[2,3-b]pyrid-5-yl)oxy)-5-fluoro-N-((4-(((4-fluorotetrahydro-2H-pyran-4-yl)methyl)amino)-3-nitrophenyl)sulfonyl)-4-(2-(2-(2-isopropylphenyl)-4-(3-methoxybenzyl)piperazin-1-yl)-7-azaspiro[3.5]non-7-yl)benzamide]
< 10 nM | – | – | > 0.5 µM | CC(C)c1ccccc1[C@@H]1CN(Cc2ccc(C(F)(F)F)cc2)CCN1C1CC2(CCN(c3cc(Oc4cnc5[nH]ccc5c4)c(C(=O)NS(=O)(=O)c4ccc(NC[C@H]5CC[C@](C)(O)CC5)c([N+](=O)[O-])c4)cc3F)CC2)C1 [compound 216, 2-((1H-pyrrolo[2,3-b]pyrid-5-yl)oxy)-5-fluoro-N-((4-((((1r, 4r)-4-hydroxy-4-methylcyclohexyl)methyl)amino)-3-nitrophenyl)sulfonyl)-4-(2-((R)-2-(2-isopropylphenyl)-4-(4-(trifluoromethyl)benzyl)piperazin-1-yl)-7-azaspiro[3.5]non-7-yl)benzamide]
< 10 nM | – | – | > 0.5 µM | CC(C)c1ccccc1[C@@H]1CN(Cc2ccc3c(c2)OCO3)CCN1C1CC2(CCN(c3cc(Oc4cnc5[nH]ccc5c4)c(C(=O)NS(=O)(=O)c4ccc(NC[C@H]5CC[C@](C)(O)CC5)c([N+](=O)[O-])c4)cc3F)CC2)C1 [compound 224, 2-((1H-pyrrolo[2,3-b]pyrid-5-yl)oxy)-4-(2-((R)-4-(benzo[d][1,3]dioxocyclopent-5-ylmethyl)-2-(2-isopropylphenyl)piperazin-1-yl)-7-azaspiro[3.5]non-7-yl)-5-fluoro-N-((4-((((1r, 4r)-4-hydroxy-4-methylcyclohexyl)methyl)amino)-3-nitrophenyl)sulfonyl)benzamide]
< 10 nM | – | – | > 0.5 µM | CC(C)c1ccccc1[C@@H]1CN(Cc2cccc3c2OCCO3)CCN1C1CC2(CCN(c3cc(Oc4cnc5[nH]ccc5c4)c(C(=O)NS(=O)(=O)c4ccc(NC[C@H]5CC[C@](C)(O)CC5)c([N+](=O)[O-])c4)cc3F)CC2)C1 [compound 227, 2-((1H-pyrrolo[2,3-b]pyrid-5-yl)oxy)-4-(2-((R)-4-((2,3-dihydrobenzo[b][1,4]dioxane-5-yl)methyl)-2-(2-isopropylphenyl)piperazin-1-yl)-7-azaspiro[3.5]non-7-yl)-5-fluoro-N-((4-((((1r, 4r)-4-hydroxy-4-methylcyclohexyl)methyl)amino)-3-nitrophenyl)sulfonyl)benzamide]
